Measurements as given in patent US11034702B2, “Thienoisoquinolines and their derivatives for the treatment of cancer” (VALORBEC, SOCIÉTÉ EN COMMANDITE, priority 2016, dated 2021).

Experiments:
[1] = system: MCF-10A cells; assay: Mitotic spindle phenotype in MCF-10A cells; format: cell-based; details: 300 nM, 6-8 hours
Method: (§1) FIG. 2A) is a line graph showing the percentage of HCT116 (p53−/−) cells, A549 cells, HeLa cells and H1299 cells in mitosis after treatment with various concentrations of C75 for one population doubling time. All of the cell lines show an increase in the proportion of mitotic cells after treatment with 200 nM C75. The bars indicate standard deviation. […] While the mitotic spindles were not dramatically altered by C75 in HFF1 cells, they were monopolar (as shown) or fragmented in the other cell types. […] The mitotic spindles were more strongly fragmented after C75 treatment in these cells vs. the cells in FIG. 2B). […] While mitotic spindles recovered bipolarity after removing nocodazole, they remained multipolar after removing C75. FIG. 2F) is a series of time-lapse images of a live HeLa cell expressing GFP:tubulin after treatment with C75 as shown in 2D) and 2E). The scale bar for all cells is 10 μm. FIG. 2G) is a schematic showing the putative target for C75. […]
(§2) C75 was also tested for efficacy in different cancer cell lines. […] To further assess the role of C75 in affecting centrosomes, HeLa cells were treated with C75 for a short period of time (5 minutes), then C75 was removed and the cells were analyzed for spindle phenotypes (schematic in FIG. 2D). […]

[2] = system: A549 cells; assay: Mitotic arrest (percentage of cells in mitosis) in A549 cells; format: cell-based, human; details: A549, within one population doubling time
Method: as §1, §2

[3] = system: H1299 (non-small cell lung cancer) cells; assay: Mitotic arrest (percentage of cells in mitosis) in H1299 cells; format: cell-based, human; details: H1299, least responsive line
Method: as §1, §2

COc1ccc(S(=O)(=O)N2Cc3ccccc3-c3sc(Br)cc32)cc1 [Compound C75]
mitotic spindle phenotype [1]: mix of monopolar, bipolar and multipolar spindles
concentration causing mitotic arrest [2]: 100 to 200 nM
concentration at which mitotic cells increase [3]: 200 nM
